Test results reported in patent publication US20180072666A1, “ENOYL REDUCTASE INHIBITORS WITH ANTIBACTERIAL ACTIVITY” (Novalex Therapeutics, Inc., priority 2016, published 2018).
Values after ≈ are worked out from the molar mass of the structure shown. Where two headings read alike, the source gives them in different places.

How the values were obtained:
[1] = target: T1, Staphylococcus aureus FabI (SaFabI) (Staphylococcus aureus, UniProt Q6GI75); test: biochemical; type: biochemical
T1 sequence (Q6GI75 1-256): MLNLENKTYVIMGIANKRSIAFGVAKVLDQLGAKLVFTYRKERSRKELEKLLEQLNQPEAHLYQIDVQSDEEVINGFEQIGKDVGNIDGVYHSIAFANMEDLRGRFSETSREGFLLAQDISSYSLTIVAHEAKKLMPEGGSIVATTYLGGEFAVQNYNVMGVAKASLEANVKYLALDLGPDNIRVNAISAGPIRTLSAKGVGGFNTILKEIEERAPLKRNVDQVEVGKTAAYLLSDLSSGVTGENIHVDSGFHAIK

[2] = target: Acinetobacter baumannii FabI (AbFabI) (Acinetobacter baumannii, UniProt A0ABX6CD96); test: biochemical; type: biochemical; conditions: read-out: Enzyme inhibition or IC50 with AbFabl
S. aureus strain RN4220 = test: microbe, parasite or virus in culture; type: cell-based; conditions: Staphylococcus aureus, RN4220, read-out: MIC S. aureus RN4220 WT
[3] = tested on: E. coli tolC- (strain BW25113, efflux pump mutant); test: microbe, parasite or virus in culture; type: cell-based; conditions: Escherichia coli, BW25113, read-out: MIC E. coli TolC-
[4] = tested on: F. tularensis (strain Utah); test: microbe, parasite or virus in culture; type: cell-based; conditions: Francisella tularensis, read-out: MIC F. tularensis strain Utah
E. coli strain BW25113 = test: microbe, parasite or virus in culture; type: cell-based; conditions: Escherichia coli, BW25113, read-out: MIC E. coli BW25113 WT
S. aureus strain Newman = test: MIC determination, S. aureus Newman; type: cell-based; conditions: Staphylococcus aureus, read-out: MIC S. aureus Newman WT
[5] = 200 nM enzyme, 300 μM crotonyl-coenzymeA, 200 μM NADPH, pH 5.5, read-out: Enzyme inhibition or IC50 with SaFabl
[6] = TSB media, 37° C. overnight, first clear well

SMILES | IC50 [1, 5] [µM] | IC50 ([2]; pH 5.5) [µM] | MIC (S. aureus strain RN4220) [µg/mL] | MIC [3] [µg/mL] | MIC [4] [µg/mL] | IC50 [2] [µM] | MIC (E. coli strain BW25113) [µg/mL] | MIC (S. aureus strain Newman; [6]) [µg/mL] | MIC (S. aureus strain Newman) [µg/mL] | IC50 [1] [µM]
O=C(Cc1cccc(F)c1F)N1CCC(c2ccc3c(c2)OCO3)C1 (centres unmarked) | 5.5 | 13.7 | 100 (≈ 290 µM) | > 200 | 25 (≈ 72.4 µM) | – | – | – | – | –
CC(=O)Nc1ccc(CC(=O)N2CCC(c3nccs3)C2)cc1 (centres unmarked) | – | – | > 200 | > 200 | > 200 | > 100 | – | – | – | –
O=C(Cc1c(F)cccc1Cl)N1CCC(c2ccc3c(c2)OCO3)C1 (centres unmarked) | 1.8 | – | 25 (≈ 69.1 µM) | > 200 | 25 (≈ 69.1 µM) | > 100 | – | – | – | –
COc1ccccc1C1CCN(C(=O)Cc2cccc(F)c2F)C1 (centres unmarked) | 3 | – | 100 (≈ 302 µM) | > 200 | 50 (≈ 151 µM) | 7.4 | – | – | – | –
CC(=O)Nc1ccc(/C=C/C(=O)N2CCC(c3ccc4c(c3)OCO4)C2)cn1 (centres unmarked) | 1.1 | 8.5 | > 200 | > 100 | > 200 | – | > 100 | – | – | –
O=C(Cc1ccccc1Cl)N1CCC(c2nccs2)C1 (centres unmarked) | 6 | – | 50 (≈ 163 µM) | > 100 | 200 (≈ 652 µM) | 14 | – | – | – | –
O=C(Cc1c(F)cccc1F)N1CCC(c2ccccc2)C1 (centres unmarked) | 1.9 | – | 50 (≈ 166 µM) | > 200 | 50 (≈ 166 µM) | 6.9 | – | 50 to 100 (≈ 166 to 332 µM) | – | –
COc1ccc(C2CCN(C(=O)Cc3ccc(NC(C)=O)cc3)C2)cc1 (centres unmarked) | – | – | > 200 | > 200 | > 200 | > 100 | – | – | – | –
CC(C)S(=O)(=O)c1ccc(CC(=O)N2CCC(c3ccc4c(c3)OCO4)C2)cc1 (centres unmarked) | – | – | > 200 | > 200 | 100 (≈ 241 µM) | > 100 | – | – | – | –
CC(=O)Nc1ccc(/C=C/C(=O)N2CCC(c3nccs3)C2)cn1 (centres unmarked) | 4.5 | – | > 100 | > 100 | > 100 | 10 to 20 | > 100 | – | – | –
CC(=O)Nc1ccc(/C=C/C(=O)N2CCC(c3ccccn3)C2)cn1 (centres unmarked) | 28.4 | – | > 100 | 100 (≈ 297 µM) | > 100 | 5 | > 100 | – | – | –
COc1ccccc1C1CCN(C(=O)/C=C/c2ccc(NC(C)=O)nc2)C1 (centres unmarked) | 3.5 | 0.42 | 12.5 to 25 (≈ 34.2 to 68.4 µM) | 0.75 (≈ 2.05 µM) | 12.5 (≈ 34.2 µM) | – | > 200 | – | 12.5 to 25 (≈ 34.2 to 68.4 µM) | –
COc1ccccc1C1CCN(C(=O)Cc2ccccc2F)C1 (centres unmarked) | 4.6 | – | 50 to 100 (≈ 160 to 319 µM) | > 200 | 50 to 100 (≈ 160 to 319 µM) | 1.9 | – | 50 to 100 (≈ 160 to 319 µM) | – | –
COc1ccccc1C1CCN(C(=O)Cc2ccc(NC(C)=O)cc2)C1 (centres unmarked) | – | – | > 200 | > 200 | > 200 | > 100 | – | – | – | –
CC(=O)Nc1ccc(/C=C/C(=O)N2CCC(c3ccccc3)C2)cn1 (centres unmarked) | 1.2 | 0.47 | > 200 | 12.5 (≈ 37.3 µM) | > 200 | – | > 200 | – | – | –
O=C(Cc1ccccc1Cl)N1CCC(c2ccccn2)C1 (centres unmarked) | 18.4 | 30.7 | 100 (≈ 332 µM) | > 200 | 200 (≈ 665 µM) | – | – | – | – | –
O=C(Cc1cccc(F)c1F)N1CCC(c2ccccc2)C1 (centres unmarked) | 7.3 | – | 50 (≈ 166 µM) | > 200 | 25 to 50 (≈ 83 to 166 µM) | 9.3 | – | 50 to 100 (≈ 166 to 332 µM) | – | –
O=C(Cc1ccccc1Cl)N1CCC(c2ccccc2)C1 (centres unmarked) | 10.7 | 3.1 | 12.5 (≈ 41.7 µM) | – | 25 (≈ 83.4 µM) | – | > 200 | – | 12.5 to 25 (≈ 41.7 to 83.4 µM) | –
COc1ccccc1C1CCN(C(=O)Cc2c(F)cccc2F)C1 (centres unmarked) | 5.7 | – | 50 to 100 (≈ 151 to 302 µM) | > 200 | 50 to 100 (≈ 151 to 302 µM) | 1.6 | – | 50 to 100 (≈ 151 to 302 µM) | – | –
O=C(Cc1ccccc1F)N1CCC(c2ccccc2)C1 (centres unmarked) | 5 | – | 50 (≈ 176 µM) | > 200 | 50 (≈ 176 µM) | 2.5 | – | 50 to 100 (≈ 176 to 353 µM) | – | –
O=C(Cc1ccccc1F)N1CCC(c2ccc3c(c2)OCO3)C1 (centres unmarked) | 2.7 | 32 | > 200 | > 200 | 25 to 50 (≈ 76.4 to 153 µM) | – | – | – | – | –
CC(=O)Nc1ccc(CC(=O)N2CCC(c3ccc4c(c3)OCO4)C2)cc1 (centres unmarked) | – | – | > 200 | > 200 | > 200 | > 100 | – | – | – | –
COc1ccccc1C1CCN(C(=O)Cc2ccccc2Cl)C1 (centres unmarked) | 0.5 | – | 12.5 to 25 (≈ 37.9 to 75.8 µM) | > 200 | 50 (≈ 152 µM) | 0.88 | – | – | – | –
CC(=O)Nc1ccc(CC(=O)N2CCC(c3ccccc3)C2)cc1 (centres unmarked) | – | – | > 200 | 200 (≈ 620 µM) | 200 (≈ 620 µM) | > 100 | – | – | – | –
COc1ccc(C2CCN(C(=O)Cc3ccccc3Cl)C2)cc1 (centres unmarked) | 12.5 | – | 100 (≈ 303 µM) | 100 (≈ 303 µM) | 12.5 (≈ 37.9 µM) | – | – | – | – | –
O=C(Cc1ccccc1Cl)N1CCC(c2ccc3c(c2)OCO3)C1 (centres unmarked) | 2.5 | – | 12.5 (≈ 36.4 µM) | – | 25 (≈ 72.7 µM) | 3.7 | > 200 | – | 6.25 to 12.5 (≈ 18.2 to 36.4 µM) | –
COc1ccccc1C1CCN(C(=O)/C=C/c2ccc(NC(C)=O)cc2)C1 (centres unmarked) | – | – | > 200 | > 200 | > 200 | – | – | – | – | –
O=C(Cc1c(F)cccc1F)N1CCC(c2ccc3c(c2)OCO3)C1 (centres unmarked) | 2.3 | 54 | > 200 | > 200 | > 200 | – | – | – | – | –
COc1ccc(C2CCN(C(=O)/C=C/c3ccc(NC(C)=O)nc3)C2)cc1 (centres unmarked) | – | – | > 200 | > 200 | > 200 | > 100 | – | – | – | 3.55
